From article PMC4937820, “Identification of selective inhibitors of RET and comparison with current clinical candidates through development and validation of a robust screening cascade” (F1000Research, 2016)

Assays:
[1] = test system: MZ-CRC-1 (RET (M918T)) versus HEK293 cells; assay: Cell POP (proof of principle) proliferation assay, MZ-CRC-1 vs HEK293 control; type: cell-based, human; settings: IC50 HEK293 control cells divided by IC50 MZ-CRC-1 cells
[2] = test system: RET-positive patients; settings: preliminary report of phase II trial; cited from earlier work
[3] = test system: RET; settings: MZ-CRC-1 cells; confirmed in-house (data not shown); read-out: IC 50 in MZ-CRC-1 cells (RET); cited from earlier work
[4] = molecular target: RET (Homo sapiens, UniProt P07949, M918T); assay: RET cellular POM (proof of mechanism) assay; type: cell-based
[5] = test system: RET; assay: Western blot of pRET, total RET and GAPDH in MZ-CRC-1 cells; type: cell-based; settings: 1µM, 24 hours
Method: Following compound treatment (1µM, 24 hours), MZ-CRC-1 cell lysates (50 μg) were subjected to polyacrylamide gel electrophoresis (PAGE) and semi-dry transfer to nitrocellulose membrane using the Bio-Rad Trans-Blot Turbo system and Trans-Blot Turbo transfer packs. Membranes were blocked overnight at 4°C in phosphate-buffered saline containing 0.1% Tween (PBST; Sigma) and 5% non-fat dried milk powder (marvel). Primary and secondary antibody incubations were performed at room temperature in PBST/0.5% marvel with 3× PBST washes post incubation. pRET (Santa Cruz #SC-20252-R) and total RET (Santa Cruz #sc-167) antibodies were used at 1:500 dilutions; GAPDH (Cell Signaling Technology #2118L) and secondary goat anti rabbit IgG HRP-linked (Cell Signaling Technology #7074) antibodies were used at 1:1000. Proteins were visualized by chemiluminescent detection of peroxidase activity using SuperSignal reagent (Pierce), and images were captured using the Syngene imager and GeneSys software.

Sequence of RET (Homo sapiens, UniProt P07949, M918T) (P07949 29-1114 M918T): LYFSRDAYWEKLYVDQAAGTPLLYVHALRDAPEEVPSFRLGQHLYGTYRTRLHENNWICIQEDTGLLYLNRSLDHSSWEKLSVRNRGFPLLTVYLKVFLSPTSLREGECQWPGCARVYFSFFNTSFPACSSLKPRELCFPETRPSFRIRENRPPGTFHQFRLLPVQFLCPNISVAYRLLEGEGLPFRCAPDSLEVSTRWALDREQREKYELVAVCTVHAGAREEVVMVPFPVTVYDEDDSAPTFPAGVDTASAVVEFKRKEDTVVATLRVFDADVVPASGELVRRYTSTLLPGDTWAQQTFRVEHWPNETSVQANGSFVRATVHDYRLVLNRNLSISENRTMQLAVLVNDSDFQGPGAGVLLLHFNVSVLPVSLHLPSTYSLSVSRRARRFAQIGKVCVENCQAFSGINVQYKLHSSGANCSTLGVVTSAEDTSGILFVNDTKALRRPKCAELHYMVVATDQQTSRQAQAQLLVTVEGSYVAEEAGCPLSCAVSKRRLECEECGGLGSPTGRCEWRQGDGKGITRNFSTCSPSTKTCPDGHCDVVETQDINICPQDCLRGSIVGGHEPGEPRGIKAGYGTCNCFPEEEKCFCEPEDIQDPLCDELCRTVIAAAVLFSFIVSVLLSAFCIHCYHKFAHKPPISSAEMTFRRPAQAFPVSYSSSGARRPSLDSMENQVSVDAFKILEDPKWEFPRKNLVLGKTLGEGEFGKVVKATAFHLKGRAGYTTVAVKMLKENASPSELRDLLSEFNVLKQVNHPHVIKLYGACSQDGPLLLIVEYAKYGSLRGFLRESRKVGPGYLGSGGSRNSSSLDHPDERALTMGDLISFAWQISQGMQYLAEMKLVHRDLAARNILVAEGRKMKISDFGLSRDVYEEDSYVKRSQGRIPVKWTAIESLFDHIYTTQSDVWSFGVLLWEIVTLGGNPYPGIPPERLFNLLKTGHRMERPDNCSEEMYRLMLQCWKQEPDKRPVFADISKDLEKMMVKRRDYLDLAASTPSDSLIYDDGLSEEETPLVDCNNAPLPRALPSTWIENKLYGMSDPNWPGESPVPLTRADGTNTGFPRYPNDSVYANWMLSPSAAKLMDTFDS

Row | Compound | Toxicity Margin [1] | also measured
1 | CCN(CC)CCNC(=O)c1c(C)[nH]c(/C=C2\C(=O)Nc3ccc(F)cc32)c1C [Sunitinib] | 28× | –
2 | CNC(=O)c1cc(Oc2ccc(NC(=O)Nc3ccc(Cl)c(C(F)(F)F)c3)cc2)ccn1 [Sorafenib] | 13× | –
3 | COc1cc2nccc(Oc3ccc(NC(=O)C4(C(=O)Nc5ccc(F)cc5)CC4)cc3)c2cc1OC [Cabozantinib] | – | Clinical response [2]: partial responses in two of three RET-positive patients
4 | CCc1cc2c(cc1N1CCC(N3CCOCC3)CC1)C(C)(C)c1[nH]c3cc(C#N)ccc3c1C2=O [Alectinib] | ^1>35× | IC50 [3]: […]
5 | CC(C)c1cc(-c2n[nH]c(=O)n2-c2ccc3c(ccn3C)c2)c(O)cc1O [Ganetespib] | 0.7× | Selectivity vs. KDR (cell) ([4]; cellular, KDR IC50 divided by RET IC50): 0.36×; IC50 ([4]; geometric mean of at least four independent measurements, read-out: RET Cell IC 50): 3.9 nM; Effect on levels of active RET [5]: reduce levels of active RET, through protein degradation
6 | COc1cc2nccc(Oc3ccc(NC(=O)NC4CC4)c(Cl)c3)c2cc1C(N)=O [Lenvatinib] | 141× | –
